Test results: patent publication US9288993B2, “Copper resistant, fengycin-producing Bacillus mojavensis strain for controlling vegetable pathogens, its use and compositions containing it” (Szegedi Tudományegyetem, priority 2011, dated 2016)
Where two headings read alike, the source gives them in different places.

Legend:
Phytophthora infestans = details: 100 ppm copper
plant pathogen fungi = assay: Fengycin concentration of diluted culture inhibiting plant pathogen fungi; format: cell-based; details: culture in glutaminic acid/glucose solution diluted 10-20 times

| Molecule | growth of Phytophthora infestans strains (Phytophthora infestans) | growth of P. syringae strains (P. syringae; 200 ppm copper) | growth of P. syringae strains (P. syringae; 400 ppm copper) | fengycin concentration which achieves a complete inhibition of the majority of the plant pathogen fungi (plant pathogen fungi) [mg/L] |
| --- | --- | --- | --- | --- |
| O=S(=O)([O-])[O-].[Cu+2] [copper, copper-sulphate] | did not show growth anymore | all increased | none of them |  |
| fengycin |  |  |  | 10 to 12 |
